In data set [1] the target is T1, bovine serum albumin (BSA) (Bos taurus, UniProt P02769).
T1 construct: purchased Sigma-Aldrich S.r.l; (Milan, Italy)
The data set is described as follows: Anti-glycation activity, AGEs formation through Maillard reaction (BSA + D-fructose). The data set is classed as biochemical. To be noted: samples 400 μg/mL, BSA 10 mg/mL + D-fructose 0.5 M, pH 7.4, 37 °C, 7 days; values only in Figure 8. As for the experimental part: Protein model bovine serum albumin (BSA) (10 mg/mL) incubated with D-fructose (0.5 M) in phosphate buffer 50 mM, pH 7.4 and NaN3 0.02% was used as positive control. BSA alone was the negative control while aminoguanidine (AMG) (400 μg/mL) was used as a reference. Final glycated BSA solutions (300 μL), alone and with samples (400 μg/mL), were incubated at 37 °C in 96-well microtiter closed with their silicon lids for 7 days. The inhibition of fluorescence was determined using a Wallac Victor 1420 Multilabel Counters fluorimeter (PerkinElmer, Waltham, MA, USA) (λexc 370 nm; λem 440 nm). Relative fluorescence units (RFU) were recorded and the percentage of AGEs formation inhibition was calculated as follows (Equation (3)): % of inhibition = {1 − (RFU sample/RFU Positive control)} × 100 (3)
Each experiment was performed in triplicate and data were expressed as mean ± SD Statistical analysis of the results was performed using Student’s t-test (p < 0.05).

Data set [2] is described as follows: Chemical stability (chemical hydrolysis) at different pH and temperature, HPLC of residual RSVTR. The class given is physicochemical. To be noted: dark. On the procedure:
The chemical hydrolysis of RSVTR was studied at pH 2.0 (0.2 N HCI), 6.8 and 7.2 (phosphate buffer solutions). All solutions containing the same amount of RSVTR (1.18 µM) were kept in the dark at a constant temperature of 37 °C, 22 °C, and 5 °C. At appropriate time intervals, chosen to obtain enough data to pinpoint the stability profile (0, 2, 4, 8, 24, 48, 72, 96, 168, 696 h at pH 7.2; 0, 2, 4, 8, 24, 48, 72, 96, 192, 528, 768 h at pH 6.8; 0, 2, 4, 8, 24, 48, 72, 96, 528 h at pH 2.0), samples were withdrawn and analyzed immediately by HPLC for the residual RSVTR.
Pseudo-first-order rate constants were determined from the slope of the linear portion of the graph obtained, plotting the logarithm of the residual amount of RSVTR against time. RSVTR half-life (t1/2) was calculated according to Equation (1): t1/2 = […] (1) where k is the pseudo-first-order rate constant.
RSVTR was analyzed using an isocratic binary mobile phase consisting of 5% of acetonitrile and 95% of triethylamine 0.3% (v/v) in water (pH adjusted to 3.0 with trifluoroacetic acid). The flow rate was set at 1.0 mL/min and the column was maintained at 24 °C throughout the analysis. Chromatograms were acquired at 290 nm after analyzing RSVTR UV spectra in the range 200–400 nm and the retention time of RSVTR was approximately 5.40 min. The analytical method was validated according to ICH guidelines.

Data set [3] is described as follows: Oxygen Radical Absorbance Capacity (ORAC) assay. As to conditions: samples 100 μg/mL properly diluted, AAPH 100 mM, fluorescein 10 nM, 37 °C, pH 7.0; values only in Figure 7. The data set is classed as biochemical.
Description: The ORAC assay determined the fluorescence decrease of fluorescein (10 nM) after its oxidation in the presence of AAPH and the investigated samples (100 μg/mL) properly diluted, as previously reported [46, 47]. The assays were carried out at 37 °C, pH 7.0 recording fluorescence through a Wallac Victor 1420 Multilabel Counters fluorimeter (PerkinElmer, Waltham, MA, USA) (excitation λ = 540 nm, emission λ = 570 nm). Trolox (12.5 μM) and phosphate buffer were used as control standard and blank, respectively. The area under the quenching curve of fluorescein was used to calculate ORAC value of the investigated compounds using Origin®7 (OriginLab Corporation, Northampton, USA). ORAC Units, expressed as trolox micromole per microgram of sample (μmol/μg), were obtained according to Equation (2): ORAC value (μmol/μg) = K(S sample − S blank)/(S Trolox − S blank) (2) where K is the sample dilution factor, S the area under the fluorescence decay curve of sample, trolox or blank. Each experiment was performed in triplicate and data were expressed as mean ± SD

Data on one compound can be found in paper PMC7823449 (Antioxidants, 2020).

Each structure is given as a SMILES string.

T1 sequence (P02769 25-607): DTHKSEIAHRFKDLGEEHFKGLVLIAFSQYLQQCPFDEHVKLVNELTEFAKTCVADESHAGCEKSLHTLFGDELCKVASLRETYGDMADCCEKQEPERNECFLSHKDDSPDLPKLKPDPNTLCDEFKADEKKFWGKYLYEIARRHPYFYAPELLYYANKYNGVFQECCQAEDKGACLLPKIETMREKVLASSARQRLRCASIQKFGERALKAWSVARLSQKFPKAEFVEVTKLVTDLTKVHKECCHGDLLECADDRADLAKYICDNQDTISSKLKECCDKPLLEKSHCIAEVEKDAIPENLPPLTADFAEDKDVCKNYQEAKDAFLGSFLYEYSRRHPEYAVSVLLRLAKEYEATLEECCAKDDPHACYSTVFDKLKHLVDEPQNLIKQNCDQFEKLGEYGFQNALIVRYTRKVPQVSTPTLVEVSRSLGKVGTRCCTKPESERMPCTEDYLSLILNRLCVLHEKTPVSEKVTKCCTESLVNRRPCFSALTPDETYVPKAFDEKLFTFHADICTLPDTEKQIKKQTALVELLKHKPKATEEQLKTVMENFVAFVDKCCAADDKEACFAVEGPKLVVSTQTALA

In general, melting point refers to the temperature, or range, at which the solid turns liquid. Usually half-life stands for the time needed for the level to fall by half in the phase considered. `Cc1c(C)c2c(c(C)c1O)CCC(C)(C(=O)Oc1ccc(/C=C/c3cc(OC(=O)C4(C)CCc5c(C)c(O)c(C)c(C)c5O4)cc(OC(=O)C4(C)CCc5c(C)c(O)c(C)c(C)c5O4)c3)cc1)O2` (stereo not drawn) [RSVTR]: the melting point lay in the range of 113 to 116 °C. In data set [1], the “Anti-glycation activity (inhibition of AGEs formation), result in words” value is recorded as “better anti-glycation agent than RSV”. For the same compound, the half-life at 1.18 µM in data set [2] (0.2 N HCl solution, pH 2, pH 2.0 (0.2 N HCl), 5 °C) is 19.2 days. The same compound showed a half-life at 1.18 µM in data set [2] (0.2 N HCl solution, pH 2, pH 2.0 (0.2 N HCl), 22 °C) of 8.25 days. In data set [2] (0.2 N HCl solution, pH 2, pH 2.0 (0.2 N HCl), 37 °C), this compound gave a half-life at 1.18 µM of 5.54 days. This compound gave a half-life at 1.18 µM in data set [2] (phosphate buffer, pH 6.8, pH 6.8 phosphate buffer, 5 °C) of 48.1 days. The same compound showed a half-life at 1.18 µM in data set [2] (phosphate buffer, pH 6.8, pH 6.8 phosphate buffer, 22 °C) of 36.1 days. In data set [2] (phosphate buffer, pH 6.8, pH 6.8 phosphate buffer, 37 °C), this compound showed a half-life at 1.18 µM of 28.9 days. The same compound showed a half-life at 1.18 µM in data set [2] (phosphate buffer, pH 7.2, pH 7.2 phosphate buffer, 5 °C) of 72.2 days. The same compound had a half-life at 1.18 µM in data set [2] (phosphate buffer, pH 7.2, pH 7.2 phosphate buffer, 22 °C) of 28.9 days. In data set [2] (phosphate buffer, pH 7.2, pH 7.2 phosphate buffer, 37 °C), this compound had a half-life at 1.18 µM of 12.5 days. In data set [3], the “Antioxidant activity (ORAC), result in words” value was “lower antioxidant capacity”.
